Measurements taken from article PMC9151520 (Archives of Toxicology, 2022).
Counter-ions that a name gives are not always drawn. Like-named read-outs stand apart in the source and are kept apart here.

Experiments:
[1] = test system: p53 signaling (p53RE-bla HCT-116 cells); test: cells; type: cell-based
[2] = test system: p53 signaling (p53RE-bla HCT-116 cells)
[3] = test system: p53 signaling (p53RE-bla HCT-116 cells); remark: listed apart in the source
[4] = read-out: p53 activation EC50, cherry pick confirmation
[5] = read-out: p53 activation EC50, primary screening
[6] = Homo sapiens, HCT-116, read-out: p53 activation EC50, cherry pick confirmation
[7] = Homo sapiens, HCT-116, read-out: p53 activation EC50, primary screening
[8] = Homo sapiens, HCT-116, read-out: p53 activation efficacy, cherry pick confirmation
[9] = Homo sapiens, HCT-116, read-out: p53 activation efficacy, primary screening

CO/C=C(/C(=O)OC)c1ccccc1COc1cccc(C(F)(F)F)n1 [Picoxystrobin]
4.78 µM: EC50 [1, 5]
42.314: p53 activation efficacy, primary screening [1]
12.5 µM: EC50 [1, 4]
51.0407: p53 activation efficacy, cherry pick confirmation [1]
inactive: p53 activation EC50, cherry pick confirmation [2] | p53 activation EC50, primary screening [2] | p53 activation efficacy, cherry pick confirmation [2] | p53 activation efficacy, primary screening [2] | p53 activation EC50, cherry pick confirmation [3] | p53 activation EC50, primary screening [3] | p53 activation efficacy, cherry pick confirmation [3] | p53 activation efficacy, primary screening [3] | Viability EC50, cherry pick confirmation (p53RE-bla HCT-116 cells) | Viability EC50, primary screening (p53RE-bla HCT-116 cells) | Viability efficacy, cherry pick confirmation (p53RE-bla HCT-116 cells) | Viability efficacy, primary screening (p53RE-bla HCT-116 cells)

COc1cccc2c1C(=O)c1c(O)c3c(c(O)c1C2=O)C[C@@](O)(C(=O)CO)C[C@@H]3O[C@H]1C[C@H](N)[C@H](O[C@@H]2CCCCO2)[C@H](C)O1 [Pirarubicin]
7.61 µM: EC50 [1, 6]
287%: Emax [1, 8]
inactive: p53 activation EC50, cherry pick confirmation [2] | p53 activation EC50, primary screening [2] | p53 activation efficacy, cherry pick confirmation [2] | p53 activation efficacy, primary screening [2] | p53 activation EC50, cherry pick confirmation [3] | p53 activation EC50, primary screening [3] | p53 activation efficacy, cherry pick confirmation [3] | p53 activation efficacy, primary screening [3] | Viability EC50, cherry pick confirmation (p53RE-bla HCT-116 cells) | Viability EC50, primary screening (p53RE-bla HCT-116 cells) | Viability efficacy, primary screening (p53RE-bla HCT-116 cells)
2.19 µM: EC50 [1, 7]
142%: Emax [1, 9]

Nc1ccc2cc3ccc(N)cc3nc2c1.Nc1ccc2cc3ccc(N)cc3nc2c1.O=S(=O)(O)O [Proflavin hemisulfate]
180.344: p53 activation efficacy, primary screening [1]
inactive: p53 activation EC50, cherry pick confirmation [2] | p53 activation EC50, primary screening [2] | p53 activation efficacy, cherry pick confirmation [2] | p53 activation efficacy, primary screening [2] | p53 activation EC50, cherry pick confirmation [3] | p53 activation EC50, primary screening [3] | p53 activation efficacy, cherry pick confirmation [3] | p53 activation efficacy, primary screening [3] | Viability EC50, cherry pick confirmation (p53RE-bla HCT-116 cells) | Viability EC50, primary screening (p53RE-bla HCT-116 cells) | Viability efficacy, primary screening (p53RE-bla HCT-116 cells)
364.531: p53 activation efficacy, cherry pick confirmation [1]
5.5 µM: EC50 [1, 4]
4.88 µM: EC50 [1, 5]
17.8 µM: EC50 (p53RE-bla HCT-116 cells; read-out: Viability EC50, cherry pick confirmation)

Cl.Nc1ccc2cc3ccc(N)cc3nc2c1 [Proflavin hydrochloride]
inactive: p53 activation EC50, cherry pick confirmation [2] | p53 activation EC50, primary screening [2] | p53 activation efficacy, cherry pick confirmation [2] | p53 activation efficacy, primary screening [2] | p53 activation EC50, cherry pick confirmation [3] | p53 activation EC50, primary screening [3] | p53 activation efficacy, cherry pick confirmation [3] | p53 activation efficacy, primary screening [3] | Viability EC50, cherry pick confirmation (p53RE-bla HCT-116 cells) | Viability EC50, primary screening (p53RE-bla HCT-116 cells) | Viability efficacy, cherry pick confirmation (p53RE-bla HCT-116 cells) | Viability efficacy, primary screening (p53RE-bla HCT-116 cells)
3.65 µM: EC50 [1, 4]
2.9 µM: EC50 [1, 5]
356.887: p53 activation efficacy, cherry pick confirmation [1]
211.641: p53 activation efficacy, primary screening [1]

CNC(=O)Oc1ccccc1OC(C)C [Propoxur]
inactive: p53 activation EC50 [1] | p53 activation efficacy [1] | p53 activation EC50 [2] | p53 activation EC50 [3] | Viability EC50 (p53RE-bla HCT-116 cells) | Viability efficacy (p53RE-bla HCT-116 cells)

O=c1c(O)c(-c2ccc(O)c(O)c2)oc2cc(O)cc(O)c12 [Quercetin]
45.8 µM: EC50 ([1]; Homo sapiens, HCT-116, read-out: EC50, p53 activation, primary screening)
inactive: EC50, p53 activation, cherry pick confirmation [1] | Efficacy, p53 activation, cherry pick confirmation [1] | EC50, p53 activation, cherry pick confirmation [2] | EC50, p53 activation, primary screening [2] | Efficacy, p53 activation, cherry pick confirmation [2] | Efficacy, p53 activation, primary screening [2] | EC50, p53 activation, cherry pick confirmation [3] | EC50, p53 activation, primary screening [3] | Efficacy, p53 activation, cherry pick confirmation [3] | Efficacy, p53 activation, primary screening [3] | EC50, viability, cherry pick confirmation (p53RE-bla HCT-116 cells) | EC50, viability, primary screening (p53RE-bla HCT-116 cells) | Efficacy, viability, cherry pick confirmation (p53RE-bla HCT-116 cells) | Efficacy, viability, primary screening (p53RE-bla HCT-116 cells)
31.7%: Emax ([1]; Homo sapiens, HCT-116, read-out: Efficacy, p53 activation, primary screening)

CCN(CC)CCCC(C)Nc1c2ccc(Cl)cc2nc2ccc(OC)cc12 (centres unmarked) [Quinacrine dihydrochloride dihydrate]
20.7 µM: EC50 [1, 7]
271%: Emax [1, 8]
79.8%: Emax [1, 9]
8.34 µM: EC50 [1, 6]
inactive: p53 activation EC50, cherry pick confirmation [2] | p53 activation EC50, primary screening [2] | p53 activation efficacy, cherry pick confirmation [2] | p53 activation efficacy, primary screening [2] | p53 activation EC50, cherry pick confirmation [3] | p53 activation EC50, primary screening [3] | p53 activation efficacy, cherry pick confirmation [3] | p53 activation efficacy, primary screening [3] | Viability EC50, cherry pick confirmation (p53RE-bla HCT-116 cells) | Viability EC50, primary screening (p53RE-bla HCT-116 cells) | Viability efficacy, cherry pick confirmation (p53RE-bla HCT-116 cells) | Viability efficacy, primary screening (p53RE-bla HCT-116 cells)

CC(CN1CC(=O)NC(=O)C1)N1CC(=O)NC(=O)C1 (centres unmarked) [Razoxane]
11.5 µM: EC50 [1, 7]
60.2%: Emax [1, 9]
31.9%: Emax [1, 8]
20.9 µM: EC50 [1, 6]
inactive: p53 activation EC50, cherry pick confirmation [2] | p53 activation EC50, primary screening [2] | p53 activation efficacy, cherry pick confirmation [2] | p53 activation efficacy, primary screening [2] | p53 activation EC50, cherry pick confirmation [3] | p53 activation EC50, primary screening [3] | p53 activation efficacy, cherry pick confirmation [3] | p53 activation efficacy, primary screening [3] | Viability EC50, cherry pick confirmation (p53RE-bla HCT-116 cells) | Viability EC50, primary screening (p53RE-bla HCT-116 cells) | Viability efficacy, cherry pick confirmation (p53RE-bla HCT-116 cells) | Viability efficacy, primary screening (p53RE-bla HCT-116 cells)

NC(=O)c1ncn([C@@H]2O[C@H](CO)[C@@H](O)[C@H]2O)n1 [Ribavirin]
inactive: p53 activation EC50, cherry pick confirmation [2] | p53 activation EC50, primary screening [2] | p53 activation efficacy, cherry pick confirmation [2] | p53 activation efficacy, primary screening [2] | p53 activation EC50, cherry pick confirmation [3] | p53 activation EC50, primary screening [3] | p53 activation efficacy, cherry pick confirmation [3] | p53 activation efficacy, primary screening [3] | Viability EC50, cherry pick confirmation (p53RE-bla HCT-116 cells) | Viability EC50, primary screening (p53RE-bla HCT-116 cells) | Viability efficacy, cherry pick confirmation (p53RE-bla HCT-116 cells) | Viability efficacy, primary screening (p53RE-bla HCT-116 cells)
10.8 µM: EC50 [1, 6]
24.3 µM: EC50 [1, 7]
43.7%: Emax [1, 8]
31.4%: Emax [1, 9]

O=[Se](O)O [Selenious acid]
45.1 µM: EC50 ([1]; read-out: EC50, p53 activation, primary screening)
25.8 µM: EC50 (p53RE-bla HCT-116 cells; read-out: EC50, viability, cherry pick confirmation)
32.672: Efficacy, p53 activation, primary screening [1]
inactive: EC50, p53 activation, cherry pick confirmation [1] | Efficacy, p53 activation, cherry pick confirmation [1] | EC50, p53 activation, cherry pick confirmation [2] | EC50, p53 activation, primary screening [2] | Efficacy, p53 activation, cherry pick confirmation [2] | Efficacy, p53 activation, primary screening [2] | EC50, p53 activation, cherry pick confirmation [3] | EC50, p53 activation, primary screening [3] | Efficacy, p53 activation, cherry pick confirmation [3] | Efficacy, p53 activation, primary screening [3] | EC50, viability, cherry pick confirmation (p53RE-bla HCT-116 cells) | EC50, viability, primary screening (p53RE-bla HCT-116 cells)
42.9 µM: EC50 (p53RE-bla HCT-116 cells; read-out: EC50, viability, primary screening)
